Active and inactive are the calls of the source. The rule behind the calls is not given here.
How the values were obtained:
PC-12 [1] = assay: Toxicity in TBHP treated rat PC12 cells assessed as reduction cell viability at 10 uM pretreated for 1 hr followed by TBHP addition and measured after 3 hrs by CCK8 assay; type: cell-based; settings: pc-12, 3 h
RAW264.7 = assay: Antiinflammatory activity in mouse RAW264.7 cells assessed as inhibition of LPS/IFNgamma-induced NO production by measuring NO level preincubated for 2 hrs and followed by LPS/IFNgamma addition and measured after 24 hrs by Griess assay; type: functional, cell-based
PC-12 [2] = assay: Neuroprotective activity against TBHP-induced cellular damage in rat PC12 cells assessed as cell viability at 10 uM pretreated for 1 hr followed by TBHP addition and measured after 3 hrs by CCK8 assay (reference value: 27.3%); type: functional; settings: for viability at 10 µM: read-out: Activity
[3] = target: Acetylcholinesterase (Electrophorus electricus) (UniProt O42275); assay: (§1) Inhibition of electric eel AChE using acetylthiocholine iodide as substrate pretreated for 15 mins followed by substrate addition and measured after 60 mins by Ellman's method
Acetylcholinesterase (Electrophorus electricus), sequence (O42275 24-633 limits assumed): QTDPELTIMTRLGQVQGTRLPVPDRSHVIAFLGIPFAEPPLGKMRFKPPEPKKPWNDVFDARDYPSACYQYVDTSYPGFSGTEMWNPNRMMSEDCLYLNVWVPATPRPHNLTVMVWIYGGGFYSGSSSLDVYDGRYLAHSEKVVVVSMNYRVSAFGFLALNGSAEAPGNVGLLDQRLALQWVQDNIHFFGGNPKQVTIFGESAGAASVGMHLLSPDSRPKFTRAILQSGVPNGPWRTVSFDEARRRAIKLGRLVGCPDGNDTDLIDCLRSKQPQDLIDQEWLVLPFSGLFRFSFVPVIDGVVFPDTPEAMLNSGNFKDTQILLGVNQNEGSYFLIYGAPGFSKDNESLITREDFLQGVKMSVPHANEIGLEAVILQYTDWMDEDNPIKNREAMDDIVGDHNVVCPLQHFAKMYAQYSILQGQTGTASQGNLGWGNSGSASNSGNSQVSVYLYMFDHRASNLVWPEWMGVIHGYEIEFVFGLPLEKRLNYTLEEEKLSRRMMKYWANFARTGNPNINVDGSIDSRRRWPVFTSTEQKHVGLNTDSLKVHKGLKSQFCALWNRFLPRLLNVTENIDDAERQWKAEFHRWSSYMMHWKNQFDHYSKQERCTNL

Acetylcholinesterase = Acetylcholinesterase (Electrophorus electricus, UniProt O42275); assay: as §1
Acetylcholinesterase, sequence (O42275 whole entry): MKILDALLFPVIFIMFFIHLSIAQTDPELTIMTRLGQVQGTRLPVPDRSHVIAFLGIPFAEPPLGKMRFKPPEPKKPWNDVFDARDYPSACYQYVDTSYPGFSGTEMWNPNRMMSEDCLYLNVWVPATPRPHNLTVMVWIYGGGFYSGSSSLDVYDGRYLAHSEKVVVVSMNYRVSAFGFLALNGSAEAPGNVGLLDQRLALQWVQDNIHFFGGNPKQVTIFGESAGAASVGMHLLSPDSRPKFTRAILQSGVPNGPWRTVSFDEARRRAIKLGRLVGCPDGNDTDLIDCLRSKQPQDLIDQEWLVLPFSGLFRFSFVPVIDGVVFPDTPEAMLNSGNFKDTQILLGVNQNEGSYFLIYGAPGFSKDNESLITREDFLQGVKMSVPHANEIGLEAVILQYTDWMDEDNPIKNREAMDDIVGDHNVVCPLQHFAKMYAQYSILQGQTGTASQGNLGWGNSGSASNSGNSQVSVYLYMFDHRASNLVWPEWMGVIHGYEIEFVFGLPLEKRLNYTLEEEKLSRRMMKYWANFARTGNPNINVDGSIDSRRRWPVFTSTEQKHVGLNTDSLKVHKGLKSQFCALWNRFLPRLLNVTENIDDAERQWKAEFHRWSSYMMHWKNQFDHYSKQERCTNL

[4] = target: Acetylcholinesterase (Electrophorus electricus) (UniProt O42275); assay: Inhibition of electric eel AChE at 12.5 uM using acetylthiocholine iodide as substrate pretreated for 15 mins followed by substrate addition and measured after 60 mins by Ellman's method relative to control

Structure (SMILES): COc1cc([C@@H]2Oc3c(OC)cc(/C=C/C(=O)NCCc4ccc(O)cc4)cc3[C@H]2C(=O)NCCc2ccc(O)cc2)ccc1O [GROSSAMIDE]
- Activity (PC-12 [1]): Toxic
- IC50 (RAW264.7): 24.7 µM
- inhibition (RAW264.7): Dose-dependent effect
- Activity (PC-12 [2]): inactive
- inhibition [3]: Dose-dependent effect
- IC50 (Acetylcholinesterase): 39.3 µM

Structure (SMILES): COC(=O)/C=C/c1cc(OC)c2c(c1)[C@H](C(=O)OC)[C@@H](c1ccc(O)c(OC)c1)O2 (racemic)
- IC50 (RAW264.7): 51.4 µM
- inhibition (RAW264.7): Dose-dependent effect
- inhibition [3]: inactive

Structure (SMILES): COc1cc(/C=C/C(=O)OCCCc2cc(OC)c3c(c2)C(COC(=O)/C=C/c2ccc(O)c(OC)c2)C(c2ccc(O)c(OC)c2)O3)ccc1O (stereo unspecified)
- IC50 (RAW264.7): 9.4 µM
- inhibition (RAW264.7): Dose-dependent effect
- viability at 10 µM (PC-12 [2]): 72.7%
- inhibition [3]: Dose-dependent effect
- IC50 (Acetylcholinesterase): 29.8 µM

Structure (SMILES): COc1cc([C@H]2Oc3c(OC)cc(CCCO)cc3[C@@H]2CO)ccc1O [DIHYDRODEHYDRODICONIFERY ALCOHOL]
- IC50 (RAW264.7): 60.4 µM
- inhibition (RAW264.7): Dose-dependent effect
- inhibition [3]: inactive

Structure (SMILES): COc1cc(/C=C/c2ccc3c(c2)[C@H](c2cc(OC)cc(OC)c2)[C@@H](c2ccc(O)cc2)O3)cc(OC)c1
- IC50 (RAW264.7): 24 µM
- inhibition (RAW264.7): Dose-dependent effect
- viability at 10 µM (PC-12 [2]): 75.5%
- IC50 (Acetylcholinesterase): 11.7 µM
- inhibition [4]: > 50%

Structure (SMILES): O=c1c(O)c(-c2ccc(O)c(O)c2)oc2cc(O)cc(O)c12 [QUERCETIN]
- viability at 10 µM (PC-12 [2]): 65.1%

Structure (SMILES): COc1cc(/C=C/c2ccc(O)cc2)cc(OC)c1 [PTEROSTILBENE]
- IC50 (RAW264.7): 30 µM
- inhibition (RAW264.7): Dose-dependent effect

Structure (SMILES): Oc1ccc(/C=C/c2cc(O)cc(O)c2)cc1 [RESVERATROL]
- IC50 (RAW264.7): 44.1 µM
- inhibition (RAW264.7): Dose-dependent effect
- viability at 10 µM (PC-12 [2]): 57.5%

Structure (SMILES): Oc1ccc([C@H]2Oc3ccc(/C=C/c4cc(O)cc(O)c4)cc3[C@@H]2c2cc(O)cc(O)c2)cc1
- IC50 (RAW264.7): 80.2 µM
- inhibition (RAW264.7): Dose-dependent effect
- viability at 10 µM (PC-12 [2]): 60.2%
- IC50 (Acetylcholinesterase): 4.3 µM
- inhibition [4]: > 50%

Structure (SMILES): COC(=O)CCc1cc(OC)c2c(c1)[C@H](C(=O)OC)[C@@H](c1ccc(O)c(OC)c1)O2
- IC50 (RAW264.7): 231 µM
- inhibition (RAW264.7): Dose-dependent effect
- inhibition [3]: inactive

From ChEMBL document CHEMBL4346751, “Comparative analysis of stilbene and benzofuran neolignan derivatives as acetylcholinesterase inhibitors with neuroprotective and anti-inflammatory activities” (Bioorg Med Chem Lett, 2019)
